According to ChEMBL document CHEMBL3301562, “MMV Box screening against Plasmodium falciparum protein kinases and aminoacyl tRNA synthetases”:

Tests used:
Type in all cases: functional
[1] = target: T1, Cdk-related protein kinase 6 (Plasmodium falciparum, UniProt O77239); test: Final concentrations were 1.5 uM ATP, 5 mM MnCl2, and 15 ug/ml PK6 in a buffer of 100 mM Tris-HCl (pH 7.5). 50 ug/mL MBP was provided as the substrate; 10 uM staurosporine was used as a control inhibitor. Incubation time was 3 hours and 40 minutes.The catalytic activity of each kinase was considered proportional to ATP consumed, as determined from measurements of residual [ATP] with the luciferase-based reagent Kinase-Glo (Promega) following incubation. Luminescence (proportional to residual [ATP]) was measured on the plate readers FLx800 (BioTek Instruments, Winooski, VT, USA) and MicroBeta2.
T1 sequence (O77239 whole entry): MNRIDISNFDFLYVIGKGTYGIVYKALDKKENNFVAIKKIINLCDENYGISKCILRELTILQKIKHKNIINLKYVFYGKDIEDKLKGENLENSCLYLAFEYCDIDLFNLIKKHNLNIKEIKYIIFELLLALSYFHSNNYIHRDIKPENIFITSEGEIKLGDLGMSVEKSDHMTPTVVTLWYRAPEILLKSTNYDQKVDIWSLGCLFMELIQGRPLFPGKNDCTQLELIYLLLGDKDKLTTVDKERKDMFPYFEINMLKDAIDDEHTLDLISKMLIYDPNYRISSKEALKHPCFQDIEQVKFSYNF

[2] = target: T2, Putative uncharacterized protein pk7 (Plasmodium falciparum, UniProt O96214); test: Final concentrations were 1 uM ATP, 2 mM DTT, 20 mM MgCl2, 2 mM MnCl2, 0.01% BSA, and 6 ug/ml PK7, in a buffer of 20 mM Tris-HCl (pH 7.5). The enzyme itself was the only substrate present (since autophosphorylation occurs); 100 uM 1NA-PP1 was used as a control inhibitor. Incubation time was 3 hours.
T2 sequence (O96214 whole entry): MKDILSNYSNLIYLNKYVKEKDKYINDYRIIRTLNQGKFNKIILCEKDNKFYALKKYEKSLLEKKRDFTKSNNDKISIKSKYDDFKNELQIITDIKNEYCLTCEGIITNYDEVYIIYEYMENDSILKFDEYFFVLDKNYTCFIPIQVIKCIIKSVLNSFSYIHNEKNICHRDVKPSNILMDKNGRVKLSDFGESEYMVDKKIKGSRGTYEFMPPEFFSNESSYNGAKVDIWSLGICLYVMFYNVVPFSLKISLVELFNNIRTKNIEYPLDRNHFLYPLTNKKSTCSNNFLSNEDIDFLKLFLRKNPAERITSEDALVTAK

[3] = target: T3, Mitogen-activated protein kinase (Plasmodium falciparum, UniProt Q25917); test: Final concentrations were 1 uM ATP, 0.5 mM DTT, 1 mM MgCl2, 0.5 mg/mL BSA, and 10 ug/ml MAP2 in a buffer of 50 mM HEPES (pH 7.0). 0.5 mg/mL histone III-S served as the substrate (13); 100 uM AMP-PNP, an ATP analog, was used as a control inhibitor. Incubation time was 4 hours.
T3 sequence (Q25917 whole entry): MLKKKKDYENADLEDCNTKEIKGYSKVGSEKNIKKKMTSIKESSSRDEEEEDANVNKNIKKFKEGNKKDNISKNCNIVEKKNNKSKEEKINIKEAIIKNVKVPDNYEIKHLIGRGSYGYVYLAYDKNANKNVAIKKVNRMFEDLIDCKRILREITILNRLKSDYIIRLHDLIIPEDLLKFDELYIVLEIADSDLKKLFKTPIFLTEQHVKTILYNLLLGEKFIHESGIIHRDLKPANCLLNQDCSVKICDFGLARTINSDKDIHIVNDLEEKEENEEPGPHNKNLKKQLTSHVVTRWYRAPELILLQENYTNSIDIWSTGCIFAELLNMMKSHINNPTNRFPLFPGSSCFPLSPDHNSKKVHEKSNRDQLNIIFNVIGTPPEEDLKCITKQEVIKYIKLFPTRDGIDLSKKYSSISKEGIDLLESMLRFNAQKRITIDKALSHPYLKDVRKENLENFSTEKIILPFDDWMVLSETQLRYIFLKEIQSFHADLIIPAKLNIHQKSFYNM

[4] = target: Calcium-dependent protein kinase 1 (Plasmodium falciparum, UniProt P62344); test: MMV: CDPK1 Protein kinase inhibition assay using recombinant PfCDPK1, syntide 2 peptide substrate, ATP and KinaseGlo to measure % inhibition at 1 uM MMV box compound.
[5] = target: T4, Calcium-dependent protein kinase 4 (Plasmodium falciparum (isolate 3D7), UniProt Q8IBS5); test: MMV: CDPK4 Protein kinase inhibition assay using recombinant PfCDPK4, syntide2 peptide substrate, ATP and KinaseGlo to measure % inhibition at 1 uM MMV box compound.
T4 sequence (Q8IBS5 whole entry): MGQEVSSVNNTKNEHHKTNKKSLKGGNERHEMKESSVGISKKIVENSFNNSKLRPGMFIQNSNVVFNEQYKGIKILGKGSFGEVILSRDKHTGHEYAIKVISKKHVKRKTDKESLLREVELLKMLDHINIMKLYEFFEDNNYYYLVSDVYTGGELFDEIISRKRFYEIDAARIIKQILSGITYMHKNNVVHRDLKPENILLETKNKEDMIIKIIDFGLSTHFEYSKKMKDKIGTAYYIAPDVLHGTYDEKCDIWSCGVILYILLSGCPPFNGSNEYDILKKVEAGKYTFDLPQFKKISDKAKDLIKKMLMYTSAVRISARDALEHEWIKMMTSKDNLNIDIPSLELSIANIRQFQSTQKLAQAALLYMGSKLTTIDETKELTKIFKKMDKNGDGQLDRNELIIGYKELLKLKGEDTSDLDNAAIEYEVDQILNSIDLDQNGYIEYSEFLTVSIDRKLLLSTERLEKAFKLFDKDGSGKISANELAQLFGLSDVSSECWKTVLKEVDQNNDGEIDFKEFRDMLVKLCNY

Proline--tRNA ligase = target: T5, Proline--tRNA ligase (Plasmodium falciparum (isolate 3D7), UniProt Q8I5R7); test: MMV: ProRS recombinant Plasmodium falciparum Prolyl-tRNA-synthetase, assay with yeast tRNA, ATP, and proline and 3 uM MMV malaria box compound, assay read out with kinase glo as % inhibition.
T5 sequence (Q8I5R7 whole entry): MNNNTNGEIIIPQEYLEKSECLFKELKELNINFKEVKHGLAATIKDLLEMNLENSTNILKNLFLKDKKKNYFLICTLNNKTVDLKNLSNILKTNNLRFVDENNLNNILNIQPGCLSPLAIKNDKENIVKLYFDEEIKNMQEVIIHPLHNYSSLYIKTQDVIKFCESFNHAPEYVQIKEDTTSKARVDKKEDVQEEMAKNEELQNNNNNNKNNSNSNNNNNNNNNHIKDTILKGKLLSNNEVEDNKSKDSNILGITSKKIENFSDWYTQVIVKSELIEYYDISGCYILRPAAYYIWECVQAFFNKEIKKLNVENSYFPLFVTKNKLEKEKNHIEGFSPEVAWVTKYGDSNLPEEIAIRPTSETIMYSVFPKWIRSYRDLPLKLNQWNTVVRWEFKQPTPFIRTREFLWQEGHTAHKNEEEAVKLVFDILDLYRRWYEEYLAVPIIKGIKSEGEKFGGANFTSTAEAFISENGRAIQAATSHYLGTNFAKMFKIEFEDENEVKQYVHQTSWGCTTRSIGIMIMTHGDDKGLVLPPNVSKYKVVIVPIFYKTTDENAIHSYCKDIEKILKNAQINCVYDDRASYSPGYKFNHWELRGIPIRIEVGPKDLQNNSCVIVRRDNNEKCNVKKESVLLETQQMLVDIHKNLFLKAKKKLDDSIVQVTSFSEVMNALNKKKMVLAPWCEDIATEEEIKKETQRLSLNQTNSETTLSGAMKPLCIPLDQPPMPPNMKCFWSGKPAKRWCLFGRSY

Lysine--tRNA ligase = Lysine--tRNA ligase (Plasmodium falciparum (isolate 3D7), UniProt Q8IDJ8); test: MMV: KRS recombinant Plasmodium falciparum Lysyl-tRNA-synthetase, assay with yeast tRNA, ATP, and lysine and 3 uM MMV malaria box compound, assay read out with kinase glo as % inhibition.
Chain of Lysine--tRNA ligase (Q8IDJ8 whole entry): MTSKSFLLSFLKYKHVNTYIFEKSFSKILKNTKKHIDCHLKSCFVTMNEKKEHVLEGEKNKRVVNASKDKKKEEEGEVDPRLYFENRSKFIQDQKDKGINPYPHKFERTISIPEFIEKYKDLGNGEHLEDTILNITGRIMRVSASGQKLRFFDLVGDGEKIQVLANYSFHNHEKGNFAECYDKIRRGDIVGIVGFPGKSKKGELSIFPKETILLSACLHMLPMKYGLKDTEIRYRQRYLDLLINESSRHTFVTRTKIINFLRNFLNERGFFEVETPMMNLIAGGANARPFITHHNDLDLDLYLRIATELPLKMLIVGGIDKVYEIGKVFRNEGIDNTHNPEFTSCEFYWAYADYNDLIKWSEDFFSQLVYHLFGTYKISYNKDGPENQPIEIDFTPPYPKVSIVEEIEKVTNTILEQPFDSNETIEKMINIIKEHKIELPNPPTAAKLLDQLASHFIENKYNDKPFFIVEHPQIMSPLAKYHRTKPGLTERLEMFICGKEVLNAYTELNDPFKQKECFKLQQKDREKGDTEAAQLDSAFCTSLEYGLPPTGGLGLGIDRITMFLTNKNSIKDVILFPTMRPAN

Chain of Calcium-dependent protein kinase 1 (P62344 whole entry): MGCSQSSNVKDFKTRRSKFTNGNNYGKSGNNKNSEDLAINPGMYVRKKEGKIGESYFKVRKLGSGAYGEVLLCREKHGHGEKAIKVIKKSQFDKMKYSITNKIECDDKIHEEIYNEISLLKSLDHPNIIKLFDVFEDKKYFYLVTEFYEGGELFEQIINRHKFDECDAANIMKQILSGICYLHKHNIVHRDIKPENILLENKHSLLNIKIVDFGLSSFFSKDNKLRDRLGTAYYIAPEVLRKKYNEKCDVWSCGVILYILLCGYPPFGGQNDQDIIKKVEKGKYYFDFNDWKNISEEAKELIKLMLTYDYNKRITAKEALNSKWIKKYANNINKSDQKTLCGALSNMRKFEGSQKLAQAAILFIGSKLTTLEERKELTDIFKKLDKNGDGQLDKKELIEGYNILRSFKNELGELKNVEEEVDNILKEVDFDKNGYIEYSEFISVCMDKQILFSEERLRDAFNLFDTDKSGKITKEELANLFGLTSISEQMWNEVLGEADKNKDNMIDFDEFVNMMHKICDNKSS

Row | SMILES | IC50 [1] [nM] | IC50 [2] [nM] | IC50 [3] [nM] | IC50 [4] [nM] | IC50 [5] [nM] | IC50 (Proline--tRNA ligase) [nM] | IC50 (Lysine--tRNA ligase) [nM]
1 | COc1ccc(-c2cc3c(nn2)-c2ccccc2C3=O)cc1 | > 1000 | > 1000 | > 1000 | > 1000 | > 1000 | > 2500 | > 2500
2 | COc1ccc(CN2CCCC(C(=O)c3ccc(C(F)(F)F)cc3)C2)c(O)c1 (configuration not stated) | > 1000 | > 1000 | > 1000 | > 1000 | > 1000 | > 2500 | > 2500
3 | O=C(NC1CCCCC1)C(c1cccs1)N(CCc1ccccc1)C(=O)c1ccco1 (configuration not stated) | > 1000 | > 1000 | > 1000 | > 1000 | > 1000 | > 2500 | > 2500
4 | Brc1ccc(Nc2nc3ccccc3nc2Nc2ccc(Br)cc2)cc1 | > 1000 | > 1000 | > 1000 | > 1000 | > 1000 | > 2500 | > 2500
5 | Cc1cc(Nc2ccc(OCc3ccccc3)cc2)nc2cc(O)ccc12 | > 1000 | > 1000 | > 1000 | > 1000 | > 1000 | > 2500 | > 2500
6 | N=c1c2ccccc2nnn1-c1cccc(C(F)(F)F)c1 | > 1000 | > 1000 | > 1000 | > 1000 | > 1000 | > 2500 | > 2500
7 | COc1cc(-c2nc(-c3ccc(Sc4ccccc4)cc3)c(-c3ccccc3)[nH]2)cc(OC)c1O | > 1000 | > 1000 | > 1000 | > 1000 | > 1000 | > 2500 | > 2500
8 | OC(Cn1nnc2ccccc21)Cn1c2ccc(Br)cc2c2cc(Br)ccc21 (configuration not stated) | > 1000 | > 1000 | > 1000 | > 1000 | > 1000 | > 2500 | > 2500
9 | Cc1ccccc1OCCSc1nc2ccc(NC(=O)c3cccs3)cc2s1 | > 1000 | > 1000 | > 1000 | > 1000 | > 1000 | > 2500 | > 2500
10 | CCN(CC)CCCNc1ccnc2cc3ccccc3cc12 | > 1000 | > 1000 | > 1000 | > 1000 | > 1000 | > 2500 | > 2500
11 | O=C(Nc1ccc(-c2nc3cc4ccccc4cc3[nH]2)cc1)c1cccc(Br)c1 | > 1000 | > 1000 | > 1000 | > 1000 | > 1000 | > 2500 | > 2500
12 | Cc1ccc(-c2nc3ccccc3o2)cc1NCc1cc(Cc2ccccc2)ccc1O | > 1000 | > 1000 | > 1000 | > 1000 | > 1000 | > 2500 | > 2500
13 | COc1ccc(C(O)(CCC(C)C)C(CN2CCOCC2)c2ccc(Cl)cc2)cc1 (configuration not stated) | > 1000 | > 1000 | > 1000 | > 1000 | > 1000 | > 2500 | > 2500
14 | CCCOCc1cc(CN2CCN(c3cccc(Cl)c3)CC2)c(O)c2ncccc12 | > 1000 | > 1000 | > 1000 | > 1000 | > 1000 | > 2500 | > 2500
15 | COc1ccc(C(=O)NC(c2ccccc2Cl)c2cc(Cl)c3cccnc3c2O)cc1 (configuration not stated) | > 1000 | > 1000 | > 1000 | > 1000 | > 1000 | > 2500 | > 2500
16 | Cc1ccc(F)cc1NC(=O)c1cc(Cl)ccc1Nc1ccccc1 | > 1000 | > 1000 | > 1000 | > 1000 | > 1000 | > 2500 | > 2500
17 | CCCCCCc1cc2cc(-c3nc4ccccc4[nH]3)c(=Nc3ccccc3C)oc2cc1O | > 1000 | > 1000 | > 1000 | > 1000 | > 1000 | > 2500 | > 2500
18 | CCCCCCC(O)(c1ccc(F)cc1)C(CN1CCOCC1)c1ccccc1 (configuration not stated) | > 1000 | > 1000 | > 1000 | > 1000 | > 1000 | > 2500 | > 2500
19 | COc1cc(OC)cc(N2C(=O)N(Cc3ccc(C(C)(C)C)cc3)c3ccccc3S2(=O)=O)c1 | > 1000 | > 1000 | > 1000 | > 1000 | > 1000 | > 2500 | > 2500
20 | CCOc1c(Br)cc(C2C(C(=O)OC)=CN(C)C=C2C(=O)OC)cc1OC | > 1000 | > 1000 | > 1000 | > 1000 | > 1000 | > 2500 | > 2500
21 | CCOC(=O)c1c[nH]c2c(CC)cccc2c1=O | > 1000 | > 1000 | > 1000 | > 1000 | > 1000 | > 2500 | > 2500
